Measured values: PubChem BioAssay (NCI)
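1) Cells in 96-well plates. 2) Compound, 48 h, 5 concentrations. 3) Linear interpolation between surrounding doses. 4) Unreached endpoint = highest concentration. Here, GI50 denotes the concentration required for 50% inhibition of growth. TGI is the concentration that stops growth completely.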

Tests used:
Assay in all cases: NCI anticancer screen, dose series, 48 h
[1] = test system: DU-145 prostate
[2] = test system: EKVX NSCLC
[3] = test system: HS 578T breast
[4] = test system: HCT-116 colon
[5] = test system: A549 NSCLC
[6] = test system: UACC-62 melanoma
[7] = test system: HOP-62 NSCLC
[8] = test system: TK-10 renal
[9] = test system: T-47D breast
[10] = test system: SNB-75 CNS

SMILES | GI50 [1] | TGI [1] | GI50 [2] | TGI [2] | GI50 [3] | TGI [3] | GI50 [4] | TGI [4] | GI50 [5] | TGI [5] | GI50 [6] | TGI [6] | GI50 [7] | TGI [7] | GI50 [8] | TGI [8] | GI50 [9] | TGI [9] | GI50 [10] | TGI [10]
COc1ccc2c(c1)/C(=C\c1c(-c3cc(OC)ccc3OC)nc3sc(C)cn13)C(=O)N2C | 56900 nM | > 100 µM | 61.1 µM | > 100 µM | 48.9 µM | > 100 µM | 22300 nM | > 100 µM | 38.6 µM | > 100 µM | 17300 nM | 44.5 µM | 26300 nM | > 100 µM | 48.7 µM | > 100 µM | 29700 nM | > 100 µM | 6.68 µM | 45.9 µM
COC(=O)c1n[nH]c(C)c1N=NN(C)CCC#N |  | 51.6 µM |  | 29.2 µM |  | 52 µM |  | 46.3 µM |  | > 100 µM |  | 35.2 µM |  | 37 µM |  | 62.4 µM |  | 93 µM |  | 33 µM
CCN(Cc1ccc(C)cc1)c1ccc(CO)c(Cl)c1 | 12700 nM | 27.4 µM | 12.9 µM | 29.4 µM | 12.5 µM | 38.2 µM | 96.6 nM | 4.11 µM | 1.55 µM | 16.2 µM | 93.3 nM | 0.684 µM | 779 nM | 16.4 µM | 0.0795 µM | 0.309 µM | 149 nM | 0.623 µM | 4.8 µM | 20.9 µM
CCN(CC)c1ccc(/C=N/NC(=O)CSc2nc3ccccc3c(=O)n2CCc2ccc(S(N)(=O)=O)cc2)c(O)c1 | 1820 nM | > 100 µM | 1.42 µM | > 100 µM | 3.02 µM | > 100 µM | 927 nM | 10.7 µM | 3.1 µM | > 100 µM | 1730 nM | 6.37 µM | 1860 nM | > 100 µM | 5.71 µM | > 100 µM | 1010 nM | > 100 µM | 3.43 µM | > 100 µM
CC(=O)c1ccc2c(c1)c1cc(C(C)=O)ccc1n2CCNC(C)C | 453 nM | 5.42 µM | 0.548 µM | 4.97 µM | 0.828 µM | 4.77 µM | 251 nM | 3.69 µM | 0.433 µM | 4.31 µM | 250 nM | 0.78 µM | 717 nM | 4.63 µM | 0.531 µM | 5.02 µM | 523 nM | 13 µM | 0.383 µM | 2.41 µM
C/C(=N\NC(=S)N1CCCCC1)c1ccccn1 | 236 nM | 5.67 µM | < 0.0145 µM | 3.99 µM | 0.142 µM |  | < 10 nM | 1.52 µM | 0.0235 µM | 4.14 µM | 106 nM | 3.93 µM | < 16 nM | 3.54 µM | 0.472 µM | 4.14 µM | < 10 nM | 5.15 µM | 1.66 µM | 6.8 µM
O=C(Cc1ccc(/C=C/C(=O)c2ncc[nH]2)cc1)Nc1ccc(F)cc1 | 1190 nM | 4.58 µM | 7.46 µM | 32.9 µM | 23.3 µM | > 33.3 µM | 1890 nM | 6.92 µM | 6.94 µM | > 33.3 µM | 5920 nM | 22.6 µM | 2640 nM | 12.7 µM | 7.89 µM | 18.4 µM | 3330 nM | 24.6 µM | 11.1 µM | > 33.3 µM
O=c1c2c(=NCCN3CCCC3)cc3c(=O)n(CCCN4CCOCC4)c(=O)c4c(-c5ccc(CN6CCCC6)cc5)cc(c(O)n1CCCN1CCOCC1)c2c4-3 | 103 nM | 1.23 µM | 0.0828 µM | 0.484 µM | 0.132 µM | 0.57 µM | 10.1 nM | 0.209 µM | 0.0288 µM | 1.39 µM | 80 nM | 0.239 µM | 25.5 nM | 0.221 µM | 0.0329 µM | 0.84 µM | 100 nM | 0.897 µM | 0.0582 µM | 0.228 µM
Fc1cccc(COc2ccc(Nc3ncnc4sc(-c5cccs5)cc34)cc2Cl)c1 | 11100 nM | > 17.7 µM | 4.74 µM | > 20.4 µM | > 8.44 µM | > 14.9 µM | 7590 nM | > 23.8 µM | 9.32 µM | > 25 µM | 1590 nM | 5.71 µM | 4880 nM | 9.86 µM | 4.76 µM | 10.8 µM | 2710 nM | 9.04 µM | 4.17 µM | 10 µM
CCN1C/C(=C\c2cc(OC)c(OC)cc2OC)C(=O)/C(=C/c2cc(OC)c(OC)cc2OC)C1 | 1850 nM | 4.12 µM | 3.5 µM | 30.6 µM | 3.34 µM | 79.5 µM | 1840 nM | 3.84 µM | 3.67 µM | > 100 µM | 2130 nM | 4.28 µM | 3450 nM | 10.4 µM | 3.88 µM | 11.3 µM | 2960 nM | > 100 µM | 5.86 µM | 78 µM
OCCN1CCN(CCCN2c3ccccc3Sc3ccc(Cl)cc32)CC1 | 5040 nM | 16.2 µM | 3.43 µM | 17.7 µM | 1.98 µM | 5.71 µM | 1760 nM | 3.55 µM | 3.68 µM | 15.2 µM | 1760 nM | 3.29 µM | 3020 nM | 12.7 µM | 1.65 µM | 3.08 µM | 1910 nM | 5.56 µM | 3.97 µM | 15.6 µM
CCN(CCCN(C)C)Cc1cc(I)cc(C)c1O | 36800 nM | > 100 µM | 26.5 µM | > 100 µM | 15.3 µM | 33.1 µM | 14600 nM | 32 µM | 28.3 µM | 90 µM | 16400 nM | 37.1 µM | 17000 nM | 34.4 µM | 4.85 µM | 22.6 µM | 21300 nM | 48.5 µM | 16.1 µM | 39.7 µM
